Structures can show the parent of a compound that is named as a salt.
Key:
[1] = Cytotoxicity assay (CCK-8); settings: human, HEK293T-hACE2 cells
[2] = tested on: SARS-CoV-2 spike-pseudovirus (D614); set-up: species or system K18-hACE2 transgenic mice; settings: mouse, in vivo
SARS-CoV-2 PsV (D614) = assay: Time-of-addition assay; format: cell-based; settings: compound added 8 h after the addition of SARS-CoV-2 PsV
MERS-CoV PsV = assay: microbe, parasite or virus in culture; format: cell-based; settings: Middle East respiratory syndrome-related coronavirus, 48 h, read-out: IC50, inhibition of MERS-CoV PsV infection
SARS-CoV PsV = assay: microbe, parasite or virus in culture; format: cell-based; settings: Severe acute respiratory syndrome coronavirus, 48 h, read-out: IC50, inhibition of SARS-CoV PsV infection
SARS-CoV-2 (D614) PsV = assay: microbe, parasite or virus in culture; format: cell-based; settings: for IC50: Severe acute respiratory syndrome coronavirus 2, 48 h, read-out: IC50, inhibition of SARS-CoV-2 (D614) PsV infection
SARS-CoV-2 spike protein = SARS-CoV-2 spike protein (Severe acute respiratory syndrome coronavirus 2, UniProt P0DTC2); format: cell-based; settings: co-incubated with PsV 1 h, HEK293T-hACE2 cells 12 h, Western blotting
[3] = tested on: SARS-CoV-2 Omicron BA.4 PsV; format: cell-based

Row | Molecule | CC50 at 48 h [1] [µM] | infection, luciferase gene expression in lung tissues (RT-qPCR) [2] | viral load, HIV-1 Gag p55 and p24 protein levels in lung [2] | inhibitory activity, time of addition (SARS-CoV-2 PsV (D614)) | IC50 (MERS-CoV PsV) [µM] | IC50 (SARS-CoV PsV) [µM] | SI, selectivity index = CC50/IC50 (SARS-CoV-2 (D614) PsV) | IC50 (SARS-CoV-2 (D614) PsV) [µM] | effect on cleavage of S protein in cells (full-length S protein level) (SARS-CoV-2 spike protein) | inhibitory activity in primary screening against Omicron (BA.4) PsV [3]
1 | CN1CCN(CCCN2c3ccccc3Sc3ccc(Cl)cc32)CC1 [Prochlorperazine maleate, prochlorperazine maleate] | 85.2 ± 13.9 | significantly inhibited | significant reduction in the viral load | about 20% | – | – | – | – | – | –
2 | CC(CN(C)C)CN1c2ccccc2Sc2ccccc21 (stereo not drawn) [Alimemazine hemitartrate, alimemazine hemitartrate] | 53.4 ± 10.9 | – | – | – | 1.22 | 0.356 | 111.929 | 0.477 ± 0.124 | – | –
3 | teicoplanin | – | – | – | – | – | – | – | – | prevented the cleavage of S protein | –
4 | CC(=O)c1ccc2c(c1)N(CCCN(C)C)c1ccccc1S2 [Acepromazine maleate, acepromazine maleate] | 93.3 ± 11.5 | – | – | – | 1.58 | 1.39 | 51.179 | 1.82 ± 0.23 | – | significant inhibitory activities
5 | OCCN1CCN(CCCN2c3ccccc3Sc3ccc(Cl)cc32)CC1 [Perphenazine, perphenazine] | 18.1 ± 1.45 | – | – | – | 1.28 | 1.16 | 21.805 | 0.831 ± 0.12 | – | significant inhibitory activities
6 | CCCCCCCCCC(=O)OCCN1CCN(CCCN2c3ccccc3Sc3ccc(C(F)(F)F)cc32)CC1 [Fluphenazine decanoate, fluphenazine decanoate] | 61.6 ± 28.8 | – | – | – | 2.65 | 3.96 | 15.775 | 3.9 ± 1.09 | – | –
